Data from patent EP4549436A1, “NOVEL INDENONE DERIVATIVES AND USES THEREOF” (Amyloid Solution Inc., priority 2022, dated 2024).

Key:
Aβ1-42 = experiment: Amyloid-beta (Aβ) disaggregation test by thioflavin-T assay; format: biochemical; conditions: 50 µM Aβ1-42 aggregated 24 hours at 37 °C, then compound 0-500 µM for 48 hours; concentration disaggregating 50 % compared to the control
Description: (§1) Each compound was dissolved in DMSO to a concentration of 10 mM. Subsequently, the compound was diluted with 6 % DMSO (in DW) and used.
(§2) Specifically, amyloid-beta and tau solutions were prepared by dissolving Aβ1-42 or Tau-RD3 (Tau repeat domain 3) monomer in DMSO to a concentration of 10 mM. Thereafter, each solution was diluted with DW to a concentration of 100 µM and stored on ice. Meanwhile, thioflavin-T was dissolved in 50 mM glycine buffer (pH 8.5) to a concentration of 5 mM. Thereafter, the resulting solution was diluted with 50 mM glycine buffer (pH 8.5) to a concentration of 5 µM and stored in a dark room while light was blocked.
(§3) Each of the amyloid-beta and tau solutions prepared according to Experimental Example 1.1 was added to a 1.5 mL microcentrifuge tube to a concentration of 50 µM or 35 µM, and then a reaction was allowed to occur therebetween at 37 °C for 24 hours. Each of the 1.5 mL microcentrifuge tubes in which amyloid-beta aggregation and tau aggregation had been completed was treated with each compound at a concentrated of 500 µM to 0 µM through serial dilution, and then a further reaction was allowed to occur therebetween at 37 °C for 48 hours. 25 µL of the reaction solution in which the reaction had been completed was added to each well of a 96-well plate for fluorescence analysis, and 75µL of the previously prepared thioflavin-T solution was added to each well. After a reaction was allowed to occur at room temperature in the dark for 5 minutes, fluorescence values were measured at excitation 450 nm and emission 485 nm by using a multi-mode microplate reader.
(§4) The fluorescence value of a group (control) treated with amyloid-beta or tau alone, followed by aggregation for 72 hours was converted into a percentage value and expressed as 100, and amyloid-beta and tau aggregates, in which aggregation had been completed upon reaction for 24 hours, were treated with each compound at each concentration and a further reaction was allowed to occur therebetween for 48 hours, and then fluorescence values thereof were measured and converted into relative values. […]

[1] = test system: Tau-RD3 (Tau repeat domain 3); experiment: Tau disaggregation test by thioflavin-T assay; format: biochemical; conditions: 35 µM Tau-RD3 aggregated 24 hours at 37 °C, then compound 0-500 µM for 48 hours; concentration disaggregating 50 % compared to the control
Description: as §1, §2, §3, §4

Substance | EC50 (Aβ1-42) | EC50 [1]
2-(4-methoxyphenyl)-3-(5-methylthiazol-4-yl)-6-(2-phenoxyethoxy)-1H-inden-1-one [Compound 21] | 5.2 µM | 173 µM
6-(2-(4-methoxyphenoxy)ethoxy)-3-(5-methylthiazol-4-yl)-2-(4-(trifluoromethyl)phenyl)-1H-inden-1-one [Compound 32] | 161 µM | > 500 µM
6-(3-phenylpropoxy)-3-(1H-pyrazol-3-yl)-2-(pyridin-3-yl)-1H-inden-1-one [Compound 7] | 194 µM | 133 µM
